Measured values from patent publication US4629738A, “Non-classical topical treatment for glaucoma” (University of Iowa Research Foundation, priority 1984, dated 1986).
Several values for one entry are separate records, joined by “and”; a condition that tells them apart may be missing. Equal values may be shown once. Entries after “also recorded” stand apart in the source; their conditions may differ.

Assays:
carbonic anhydrase = assay: in vitro carbonic anhydrase activity, simplified method of Maren; type: biochemical; set-up: averaged I50 (concentration of drug causing 50% inhibition of enzyme): unit not given here
Protocol: Water was added to the reaction vessel which was kept in a water bath at 0±0.25° C. The reaction cell was constantly purged with CO2 at a rate of 200 to 250 ml/min. Each reagent was added at a specified time and in a specified order. […] The time required for the reaction begins with the addition of carbonate buffer and was completed with the indicator changed from red to yellow. […] Reaction time was the time for the uncatalyzed reaction time. […] By varying the time before adding the carbonate buffer and then determining the reaction time, the equilibration time can be accurately determined. The reaction time was averaged over three determinations. […] (If two enzyme units are added, then the concentration of drug yielding a reaction time corresponding to the activity of one unit is taken as the I50). An enzyme unit (e.u.) was calculated from: [formula]

[1] = test system: intraocular pressure (IOP) of adult white rabbits; assay: Salted Rabbit Test: IOP after topical 1% w/v suspension; type: in vivo; details: for IOP change, individual rabbit (Rabbit No. 1-6): 1% w/v suspension, 3 drops
Protocol: In particular, an initial drop from the test formulation followed by two drops at one minute intervals are applied to one eye of each of six adult white rabbits that had been maintained ona diet containing 0.5% sodium. The treated eye was selected randomly, whereas, the fellow eye received placebo; the observer was masked. Results identified a small but significant reduction of intraocular pressure in the treated eye at 30, 60 and 120 minutes.
One drop, followed by two drops each at one minute intervals, was applied to one eye of normal adult white rabbits. Six rabbits were used in the experiment. The treated eye was selected randomly, whereas, the fellow eye received placebo. The observer was masked. The intraocular pressure (IOP) was measured with a Digilab Pneumotonometer, initially and every ten minutes for 120 minutes following instillation of the anti-glaucoma agent. A drop of local anesthetic was applied just prior to making the measurement.

CNS(=O)(=O)c1nnc(NC(C)=O)s1 [methyl acetazolamide, N-methyl-2-acetylamino-1,3,4-thiadiazole-5-sulfonamide]
in vitro carbonic anhydrase inhibition, in words (carbonic anhydrase): inactive in vitro | activity relative to acetazolamide (ratio of I50) (carbonic anhydrase; 0.52/0.00914): 1/60 | averaged I50 (concentration of drug causing 50% inhibition of enzyme) (carbonic anhydrase; heparinized blood, 2 enzyme units, 0 C): 0.520 | IOP change, individual rabbit (Rabbit No. 1-6) ([1]; 10 min): -4 mm Hg and -2 mm Hg and 0 mm Hg | IOP change, individual rabbit (Rabbit No. 1-6) ([1]; 20 min): -2 mm Hg and 0 mm Hg and -4 mm Hg and -3 mm Hg and 1 mm Hg | IOP change, individual rabbit (Rabbit No. 1-6) ([1]; 30 min): -3 mm Hg and -2 mm Hg and -1 mm Hg | IOP change, individual rabbit (Rabbit No. 1-6) ([1]; 40 min): 0 mm Hg and -1 mm Hg | IOP change, individual rabbit (Rabbit No. 1-6) ([1]; 50 min): -5 mm Hg and -2 mm Hg and -1 mm Hg and 0 mm Hg | IOP change, individual rabbit (Rabbit No. 1-6) ([1]; 60 min): -3 mm Hg and 1 mm Hg and -2 mm Hg and -1 mm Hg | IOP change, individual rabbit (Rabbit No. 1-6) ([1]; 70 min): -4 mm Hg and -2 mm Hg and 0 mm Hg and 2 mm Hg | IOP change, individual rabbit (Rabbit No. 1-6) ([1]; 80 min): -3 mm Hg and -4 mm Hg and 1 mm Hg and 0 mm Hg | IOP change, individual rabbit (Rabbit No. 1-6) ([1]; 90 min): -2 mm Hg and 1 mm Hg and -1 mm Hg and -4 mm Hg and 0 mm Hg and 3 mm Hg | IOP change, individual rabbit (Rabbit No. 1-6) ([1]; 100 min): -4 mm Hg and 0 mm Hg and -3 mm Hg and -2 mm Hg | IOP change, individual rabbit (Rabbit No. 1-6) ([1]; 110 min): -2 mm Hg and 0 mm Hg and 1 mm Hg | IOP change, individual rabbit (Rabbit No. 1-6) ([1]; 120 min): -3 mm Hg and 0 mm Hg and -1 mm Hg | reduction of intraocular pressure after topical administration, in words ([1]; rabbit, eye drops): lowering of IOP was statistically significant at all time intervals; also recorded: able to reduce intraocular pressure
